# Laboratory results reported in article PMC5012889, “Cardiac action of the first G protein biased small molecule apelin agonist” (Biochemical Pharmacology, 2016).
# pKi: −log10 of the molar value. “Also recorded” adds a separate entry of the source. Counter-ions that a name gives are not always drawn. Like-named read-outs stand apart in the source and are kept apart here.
# What was measured:
# [1] = Analysis of rat plasma samples by LC-MS/MS; assay type: in vivo; conditions: approx. 10 min after last of three cumulative i.v. doses, heparinised samples, n = 6
# Method: Analysis of plasma samples was performed by Peakdale Molecular (Chapel-en-la-Frith, UK). End-point blood samples were taken from rats (n = 6) following completion of three cumulative doses of CMF-019 (as described before), approximately 10 min after the last intravenous administration. The blood was collected in heparin-coated vials and spun at low speed (2000 g, 5 min), the plasma supernatant was removed and frozen. Quantitative analysis was performed using LC-MS/MS with metaprolol as an internal standard and CMF-019 to quantify CMF-019 in the samples.
# [2] = Thermodynamic solubility (Cyprotex); assay type: physicochemical; conditions: pH 7.4, saline or isotonic, thermodynamic from solid, pH7.4, potassium salt
# Method: (§1) CMF-019 ((S)-3-[1-(1-Ethyl-propyl)-2-thiophen-2-ylmethyl-1H-benzoimidazole-5-carbonyl]-amino-5-methyl-hexanoic acid) has previously been prepared (compound number 107 from patent US20140094450, 2014) via a minor modification of the literature procedure (Fig. 2). […] Thermodynamic solubility (potassium salt) and an in vitro murine microsomal stability of CMF-019 were performed at Cyprotex (Macclesfield, UK).
# [3] = biological target: T1, apelin receptor (Homo sapiens, UniProt P35414); assay: Bias calculations between pathways (ΔΔLogR, bias factors); conditions: compared to [Pyr1]apelin-13
# T1 sequence (P35414 1-380): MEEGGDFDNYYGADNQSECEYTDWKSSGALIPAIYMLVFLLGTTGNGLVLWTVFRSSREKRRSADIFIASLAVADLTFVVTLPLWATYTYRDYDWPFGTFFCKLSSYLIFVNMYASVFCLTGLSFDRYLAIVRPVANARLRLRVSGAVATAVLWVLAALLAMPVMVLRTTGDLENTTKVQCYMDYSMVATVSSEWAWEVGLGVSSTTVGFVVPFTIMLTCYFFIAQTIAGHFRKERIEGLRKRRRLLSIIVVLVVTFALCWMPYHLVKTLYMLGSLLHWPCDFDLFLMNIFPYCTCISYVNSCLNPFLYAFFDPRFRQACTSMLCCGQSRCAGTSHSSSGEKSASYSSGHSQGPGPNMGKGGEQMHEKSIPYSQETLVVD
# Method: β-Arrestin recruitment, β-arrestin mediated internalisation and cAMP assays were performed according to the manufacturer’s instructions (DiscoverX®, Fremont, CA) and as described previously [4].
# All data are expressed as mean ± SEM values. Binding and cell-based experiments were performed in triplicate. For cell based assays, n-values are given as the number of replicates/number of experiments.
# [4] = biological target: T2, apelin receptor (Mus musculus, UniProt Q9WV08); assay: Competition radioligand binding, mouse whole heart homogenate
# T2 construct: from tissue; host or cells: mouse whole heart homogenate
# T2 sequence (Q9WV08 1-377): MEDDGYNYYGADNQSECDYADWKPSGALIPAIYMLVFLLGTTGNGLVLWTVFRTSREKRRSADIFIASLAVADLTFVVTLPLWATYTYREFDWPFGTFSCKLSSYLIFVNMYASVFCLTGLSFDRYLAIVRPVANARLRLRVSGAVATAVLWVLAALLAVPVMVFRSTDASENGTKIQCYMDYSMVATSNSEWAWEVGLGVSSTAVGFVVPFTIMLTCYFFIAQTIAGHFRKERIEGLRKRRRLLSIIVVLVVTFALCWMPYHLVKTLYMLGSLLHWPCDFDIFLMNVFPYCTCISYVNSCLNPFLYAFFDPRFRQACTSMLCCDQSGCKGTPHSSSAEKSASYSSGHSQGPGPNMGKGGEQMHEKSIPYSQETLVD
# Method: (§2) Initial binding assays were performed by Cerep (Celle L’Evescault, France) on Chinese Hamster Ovary (CHO-K1) cells expressing the human apelin receptor. Further experiments were performed on human homogenised left ventricle (HLV, 1.5 mg/ml) and rat and mouse whole heart homogenates to determine any species variability prior to in vivo experiments. […] Experiments were performed in triplicate and data analysed using GraphPad Prism 6 (GraphPad Software, Inc. La Jolla, USA). Binding affinities were calculated by the Cheng-Prusoff methodology using measured IC50 values.
# [5] = biological target: T3, apelin receptor (Rattus norvegicus, UniProt Q9JHG3); assay: Competition radioligand binding, rat whole heart homogenate
# T3 construct: from tissue; host or cells: rat whole heart homogenate
# T3 sequence (Q9JHG3 1-377): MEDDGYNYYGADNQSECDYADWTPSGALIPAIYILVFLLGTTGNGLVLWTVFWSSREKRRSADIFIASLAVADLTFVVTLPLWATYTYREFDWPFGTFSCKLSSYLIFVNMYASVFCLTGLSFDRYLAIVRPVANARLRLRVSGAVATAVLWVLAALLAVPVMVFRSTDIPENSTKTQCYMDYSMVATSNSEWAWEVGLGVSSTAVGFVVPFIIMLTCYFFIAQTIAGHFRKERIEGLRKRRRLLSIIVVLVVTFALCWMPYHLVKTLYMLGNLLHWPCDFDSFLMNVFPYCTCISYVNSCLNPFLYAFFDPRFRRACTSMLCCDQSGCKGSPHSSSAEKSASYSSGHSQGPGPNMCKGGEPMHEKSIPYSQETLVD
# Method: as §2
# [6] = biological target: T1, apelin receptor
# Method: as §2
# [7] = biological target: T1, apelin receptor; conditions: compared to [Pyr1]apelin-13
# Source text: Statistical significance was taken as 5%.
# [8] = system: anaesthetised male Sprague–Dawley rats; assay: Rat heart catheterisation (left ventricle pressure-volume catheter), intravenous injection; assay type: in vivo; conditions: for increase in dP/dtMAX (cardiac contractility): cumulative bolus
# Source text: Male Sprague-Dawley rats (273 ± 6 g; […] Temperature was monitored throughout the surgical procedure using a rectal probe. Prior to the start of surgery, it was ensured that pain reflexes had ceased by use of a hind-paw pinch test. The surgery was completed as previously described. In brief, the right external jugular vein was cannulated, flushed with heparin solution (2%, 0.9% saline, pH5, Macopharma) and the right common carotid artery located. The catheter (Millar Inc., SPR-869) was calibrated using the MPVS Ultra system (ADIstruments) before being inserted into the carotid and advanced to the left ventricle. Once a stable pressure-volume loop could be observed, the catheter was left in place for ten minutes. […] The effects on pressure and volume were measured and the heart rate monitored to determine and maintain a suitable depth of anaesthesia. […] Data were acquired using the MPVS Ultra system (ADIstruments) and analysed using LabChart 8 (ADIstruments). Values for the maximal change in left ventricular systolic pressure (LVSP), stroke volume, cardiac output, contractility ([…] lusitropy ([…]) from baseline were calculated from the raw data and compared. Following completion of the measurements the animal was euthanised by exsanguination under high flow isoflurane.
# [9] = In vitro murine microsomal stability (Cyprotex); assay type: in vitro ADME; conditions: mouse, murine microsomes
# Method: as §1
# [10] = biological target: T4, native apelin receptor (Homo sapiens, UniProt P35414); assay: Competition radioligand binding, human left ventricle homogenate
# T4 sequence (P35414 1-380): T1 sequence (P35414 1-380)
# Method: as §2
# [11] = parameters: method as in earlier work; conditions: saline at room temperature; cited from earlier work
# [12] = 500 nmol i.v., anaesthetised rats
# [13] = 5000 nmol i.v., anaesthetised rats
smiles,measurement,setting,value
CCC(CC)n1c(Cc2cccs2)nc2cc(C(=O)N[C@H](CC(=O)O)CC(C)C)ccc21 [CMF-019 (potassium salt)],mean plasma concentration,[1],25.4 ± 2.5 µM
same,solubility,[2],2090 µg/mL
"CCC(CC)n1c(Cc2cccs2)nc2cc(C(=O)N[C@H](CC(=O)O)CC(C)C)ccc21 [CMF-019, (S)-3-[1-(1-Ethyl-propyl)-2-thiophen-2-ylmethyl-1H-benzoimidazole-5-carbonyl]-amino-5-methyl-hexanoic acid]",bias factor (BF),[3]; cAMP (Gαi) over internalisation,5828
same,bias factor (BF),[3]; cAMP (Gαi) over β-arrestin,398
same,ΔΔLogR,[3]; cAMP over internalisation,3.77 ± 0.25
same,ΔΔLogR,[3]; cAMP over β-arrestin,2.60 ± 0.24
same,ΔΔLogR,[3]; β-arrestin over internalisation,1.17 ± 0.26
same,pKi,[4],8.71
same,mean plasma concentration,[1],~25 µM
same,pKi,[5],8.49
same,pKi,[6],7.61
same,relative effectiveness (RE),[7]; cAMP,4.19
same,ΔLogR,[7]; cAMP,0.62 ± 0.16
same,relative effectiveness (RE),[7]; internalisation,7.19 × 10^−4
same,ΔLogR,[7]; internalisation,−3.14 ± 0.19
same,relative effectiveness (RE),[7]; β-arrestin,0.01
same,ΔLogR,[7]; β-arrestin,−1.98 ± 0.18
same,increase in cardiac output,[8]; [12],1210 ± 170 RVU/min
same,increase in stroke volume,[8]; [12],2.62 ± 0.31 RVU
same,increase in dP/dtMAX (cardiac contractility),[8]; [12],606 ± 112 mmHg/s
same,increase in LVSP,[8]; [13],6.22 ± 1.98 mmHg
same,increase in dP/dtMAX (cardiac contractility),[8]; [13],833 ± 152 mmHg/s
same,adverse effects,[8]; any of the concentrations administered (50–5000 nmol i.v.),No adverse effects were observed
same,effect on dP/dtMIN (lusitropy),"[8]; i.v., anaesthetised rats",Neither [Pyr^1]apelin-13 nor CMF-019 altered the dP/dtMIN; also recorded: did not alter
same,effect on heart rate,"[8]; i.v., anaesthetised rats",without a change in heart rate
same,half-life,[9],38 min
same,pKi,[10],8.58
CC1=CC(=O)C(C2CCCCC2)=C/C1=N\OS(=O)(=O)c1ccccc1 [ML233],solubility in saline,[11],low solubility
